Results from US5283321A (priority 1986, dated 1994).
Peptide text beside a SMILES is read from it.

Tests used:
[1] = system: spleen cells from a NMRI mouse; experiment: LAF assay, lymphocyte or thymocyte proliferating activity (3H-thymidine incorporation); format: cell-based; settings: 48 h + 16 h with 3H-thymidine
[2] = system: antibodies in human sera; experiment: ELISA, reaction between the synthetic peptide (BSA-coupled coating antigen) and antibodies in human sera; format: binding; settings: swine anti-human conjugate 1/100, plates read after 20 min, peptide coupled to BSA as coating antigen
[3] = system: alkaline phosphatase swine anti-human IgG conjugate; experiment: ELISA, reaction between the synthetic peptide and conjugate only (swine anti-human); format: binding; settings: no serum, plates read after 13 min
Experimental: (§1) The above synthesized peptide was coupled to a carrier, i.e. bovine serum albumin (BSA) in the following manner to form a peptide antigen (coating antigen) which was used in ELISA.
(§2) Fractions containing coupled material were pooled and the pooled material was used in ELISA as coating antigen and was added directly, without any previous dilution, to the microplate.
(§3) PERFORMANCE 1. Coating of microplates. Microplates were incubated with 0.1 ml of antigen in PBS at room temperature (20°-25° C.) over night.
(§4) 2. Incubation with bovine serum albumin (BSA) and serum. The plates were washed four times and then incubated with 0.1 ml of 1% (w/v) BSA in PBS at 37° C. for one hour. After washing, 0.1 ml of serum appropriately diluted in incubation buffer, was added to the wells and the plate(s) was incubated at room temperature for one hour.
(§5) 3. Incubation with conjugate. After washing, 0.1 ml of conjugate appropiately diluted in incubation buffer, was added to the wells and the plate(s) was incubated at room temperature for two hours.
(§6) 4. After washing, 0.1 ml of the enzyme substrate solution was added to the wells. The plates were kept at room temperature and the absorbance at 405 nm was read after the time indicated below. […]
(§7) The plates were read at times indicated below in an automated ELISA-reader (Titertek, Multiscan). […]

[4] = system: purified pertussis toxin; experiment: Challenge of immunized mice with purified pertussis toxin, survival; format: in vivo, mice (NMRI); settings: challenge 20 μg/mouse=5×LD50
[5] = system: antibodies in rabbit sera; experiment: ELISA, reaction between the synthetic peptide (BSA-coupled coating antigen) and antibodies in rabbit sera; format: binding; settings: goat anti-rabbit conjugate 1/500, plates read after 3 min, peptide coupled to BSA as coating antigen
[6] = system: purified pertussis toxin; experiment: Immunization of mice with the synthetic peptide, ELISA of sera against native pertussis toxin; format: in vivo, mice (NMRI); settings: sera two months after third dose
[7] = system: alkaline phosphatase; experiment: Similar ELISA experiment where enzyme alone was used; format: binding; settings: enzyme alone instead of conjugate
Text: That the synthesized peptide reacted with and bound to the respective conjugate was further shown by the ability of the conjugates alone to bind the peptide.

[8] = system: alkaline phosphatase goat anti-rabbit Ig conjugate; experiment: ELISA, reaction between the synthetic peptide and conjugate only (goat anti-rabbit); format: binding; settings: no serum, plates read after 5 min
Experimental: as §1, §2, §3, §4, §5, §6, §7

Phytohaemagglutinin [PHA]
cpm (range of triplicates) ([1]; 2.5 μg per well): 6700-8100 cpm | cpm (range of triplicates) ([1]; 5 μg per well): 9800-10400 cpm | cpm (range of triplicates) ([1]; 7 μg per well): 7000-8100 cpm

CC(C)[C@H](NC(=O)[C@H](CO)NC(=O)[C@H](CCCNC(=N)N)NC(=O)[C@H](CCCNC(=N)N)NC(=O)[C@H](CO)NC(=O)[C@@H](NC(=O)[C@H](Cc1ccc(O)cc1)NC(=O)[C@@H]1CCCN1C(=O)[C@H](CC(N)=O)NC(=O)[C@@H]1CCCN1C(=O)[C@H](CC(N)=O)NC(=O)[C@H](C)NC(=O)[C@H](CCCNC(=N)N)NC(=O)[C@@H](NC(=O)[C@H](CCC(N)=O)NC(=O)[C@@H](N)CCCCN)[C@@H](C)O)[C@@H](C)O)C(=O)N[C@@H](C)C(=O)N[C@@H](CO)C(=O)O [The synthetic peptide, H--Lys--Gln--Thr--Arg--Ala--Asn--Pro--Asn--Pro--Tyr--Thr----Ser--Arg--Arg--Ser--Val--Ala--Ser--OH] (H-KQTRANPNPYTSRRSVAS-OH)
Absorbance at 405 nm ([2]; serum Human 1 (one individual) diluted 1/500): 1.11 | Absorbance at 405 nm ([2]; serum Human 2 (pool of human sera) diluted 1/500): 1.26 | Absorbance at 405 nm [3]: 0.84 | Days of survival (mean) ([4]; immunized mice with endpoint titre 80-40960 (17 mice)): 3.765 days | Days of survival (mean) ([4]; immunized mice with endpoint titre 320-40960 (15 mice)): 4.000 days | Days of survival (mean) ([4]; immunized mice with endpoint titre 640-40960 (14 mice)): 3.929 days | Days of survival (mean) ([4]; immunized mice with endpoint titre 1280-40960 (10 mice)): 4.600 days | Days of survival (mean) ([4]; immunized mice with endpoint titre 2560-40960 (8 mice)): 4.875 days | Days of survival (mean) ([4]; immunized mice with endpoint titre 5120-40960 (6 mice)): 5.333 days | Days of survival (mean) ([4]; immunized mice with endpoint titre 10240-40960 (3 mice)): 6.333 days | Absorbance at 405 nm ([5]; serum Rabbit 1 diluted 1/500): 1.21 | Absorbance at 405 nm ([5]; serum Rabbit 2 diluted 1/500): 1.05 | Mean Titre ([6]; endpoint titre against pertussis toxin, cut off absorbance 0.1, 17 mice): 2334 | Titre Range ([6]; endpoint titre against pertussis toxin, cut off absorbance 0.1): 320-40960 | Responders ([6]; of 17 mice, s.c. 3×0.5 ml BSA-coupled peptide antigen on aluminium hydroxide, one month apart): 15 | Binding of the peptide to alkaline phosphatase enzyme alone [7]: no binding was observed | Absorbance at 405 nm [8]: 1.23 | cpm (range of triplicates) ([1]; 1 μg per well): 3000-4200 cpm | cpm (range of triplicates) ([1]; 10 μg per well): 7000-8500 cpm
